# US20150231236A1, “METHODS FOR TREATING PATIENTS WITH HYPERCHOLESTEROLEMIA THAT IS NOT ADEQUATELY CONTROLLED BY MODERATE-DOSE STATIN THERAPY” (Regeneron Pharmaceuticals, Inc., priority 2014, published 2015)
# What was measured:
# [1] = test system: patients with hypercholesterolemia at high CV risk not adequately controlled with rosuvastatin (10 mg or 20 mg); experiment: Example 3: safety, treatment-emergent adverse events in pooled treatment groups; settings: mAb316P group
# [2] = test system: patients with hypercholesterolemia at high CV risk not adequately controlled with atorvastatin (20 mg or 40 mg); experiment: Example 2: randomized, double-blind trial, lipid efficacy of mAb316P add-on to atorvastatin vs EZE add-on, atorvastatin dose doubling or switch to rosuvastatin; type: in vivo, human; settings: ITT Population
# Description: The present study was a randomized, double-blind, active-comparator, parallel-group study in patients at high CV risk with non-FH or heFH who are not adequately controlled with atorvastatin (20 mg or 40 mg) with or without other lipid-modifying therapy (LMT) (excluding EZE). The study design is illustrated in FIG. 1. Patients who entered the study were taking either atorvastatin 20 mg or atorvastatin 40 mg. The former patients were randomized to 1 of 3 treatment arms (arms 1 to 3); the latter patients were randomized to 1 of 4 treatment arms (arms 4 to 7). The treatment arms are as follows:
# (1) mAb316P+atorvastatin 20 mg+placebo-EZE; (2) Placebo-mAb316P+atorvastatin 40 mg+placebo-EZE; and (3) Placebo-mAb316P+atorvastatin 20 mg+EZE 10 mg.
# (4) mAb316P+atorvastatin 40 mg+placebo-EZE; (5) Placebo-mAb316P+atorvastatin 80 mg+placebo-EZE; (6). Placebo-mAb316P+rosuvastatin 40 mg+placebo-EZE; and (7) Placebo-mAb316P+atorvastatin 40 mg+EZE 10 mg.
# (B) a double-blind treatment period of 24 weeks. Each patient received a SC injection Q2W (mAb316P or placebo-mAb316P) and was administered (or instructed to take) 2 oral blinded medications daily (a statin [atorvastatin or rosuvastatin] and EZE or placebo-EZE). The first injection of mAb316P or placebo-mAb316P was administered at the clinical site on day 1, after study assessments were completed, and as soon as possible after the patient was randomized into the study. The patient/caregiver administered subsequent injections outside of the clinic according to the dosing schedule. On days where the clinic study visit coincided with dosing, the dose of study drugs (injectable and oral) were administered after all study assessments had been performed and all laboratory samples collected. The last dose of mAb316P or placebo-mAb316P was administered at week 22. The last dose of daily oral study drugs was administered at week 24. At week 12, based on their baseline CV risk, certain patients randomized to mAb316P in a blinded manner, had their dose increased as follows:
# Each patient received a subcutaneous (SC) injection once every two weeks (Q2W) (mAb316P or placebo-mAb316P) and took 2 oral blinded medications daily (a statin [atorvastatin or rosuvastatin] and EZE or placebo-EZE).
# The injectable study treatment was a single SC injection of 1 mL for a 75 mg or 150 mg dose of mAb316P or placebo-mAb316P provided in an auto-injector, administered in the abdomen, thigh, or outer area of the upper arm. The first injection of study drug was administered at the clinical site, as soon as possible after the patient was randomized into the study. The patient was monitored at the clinical site for at least 30 minutes following the first injection. The patient/caregiver administered subsequent injections outside of the clinic, according to the dosing schedule. On days where the clinic study visit coincided with dosing, the dose of study drug was administered after all study assessments have been performed and all laboratory samples collected.
# The dose of mAb316P was increased, in a blinded manner, from 75 mg to 150 mg SC Q2W, starting at week 12, based on baseline CV risk in the following circumstances:
# The primary efficacy endpoint was the percent change in calculated LDL-C from baseline to week 24, which is defined as: 100× (calculated LDL-C value at week 24−calculated LDL-C value at baseline)/calculated LDL-C value at baseline. The baseline calculated LDL-C value was the last LDL-C level obtained before the first double-blind study drug injection. The calculated LDL-C at week 24 will be the LDL-C level obtained within the week 24 analysis window and during the main efficacy period. The main efficacy period was defined as the time from the first double-blind study drug injection up to 21 days after the last double-blind study drug injection or up to the upper limit of the week 24 analysis window, whichever comes first.
# Total-C, HDL-C, TG, ApoB, ApoA-1, and Lp (a) were directly measured by a central laboratory. […]
# [3] = Comparison 1: mAb316P + atorva 20 mg arm vs. atorva 40 mg arm
# [4] = Comparison 2: mAb316P + atorva 20 mg arm vs. EZE + atorva 20 mg arm
# [5] = Comparison 3: mAb316P + atorva 40 mg arm vs. atorva 80 mg arm
# [6] = Comparison 4: mAb316P + atorva 40 mg arm vs. rosuva 40 mg arm
substance,measurement,setting,value
"mAb316P: human anti-PCSK9 antibody; heavy chain SEQ ID NO:5, light chain SEQ ID NO:9",TEAE influenza,[1],4 patients
same,TEAE upper respiratory tract infection,[1],6 patients
same,TEAE urinary tract infection,[1],4 patients
same,"Delta, percent change from baseline of Apo B to week 24",[2]; [3],−29.3%
same,"Delta, percent change from baseline of Apo-B to week 12",[2]; [3],−31.5%
same,"Delta, percent change from baseline of HDL-C to week 24",[2]; [3],2.9%
same,"Delta, percent change from baseline of Lp(a) to week 24",[2]; [3],−3.4%
same,"Delta, percent change from baseline of Non-HDL-C to week 12",[2]; [3],−33.5%
same,"Delta, percent change from baseline of Total-C to week 12",[2]; [3],−22.6%
same,"Delta, percent change from baseline of Total-C to week 24",[2]; [3],−23.1%
same,"Delta, percent change from baseline of calculated LDL-C to week 12",[2]; [3],−39.8%
same,"Delta, percent change from baseline of calculated LDL-C to week 24",[2]; [3],−39.1%
same,"Delta, percent change from baseline of non-HDL-C to week 24",[2]; [3],−30.4%
same,"Odds Ratio, proportion of patients reaching calculated LDL-C < 70 mg/dL at Week 24",[2]; [3],28.9
same,"Odds Ratio, proportion of very high CV risk patients reaching calculated LDL-C < 70 mg/dL or high CV risk patients reaching calculated LDL-C < 100 mg/dL at Week 24",[2]; [3],16.3
same,"Delta, percent change from baseline of Apo B to week 24",[2]; [4],−23.6%
same,"Delta, percent change from baseline of Apo-B to week 12",[2]; [4],−25.3%
same,"Delta, percent change from baseline of HDL-C to week 24",[2]; [4],4.9%
same,"Delta, percent change from baseline of Lp(a) to week 24",[2]; [4],−13.0%
same,"Delta, percent change from baseline of Non-HDL-C to week 12",[2]; [4],−23.4%
same,"Delta, percent change from baseline of Total-C to week 12",[2]; [4],−15.8%
same,"Delta, percent change from baseline of Total-C to week 24",[2]; [4],−15.8%
same,"Delta, percent change from baseline of calculated LDL-C to week 12",[2]; [4],−25.8%
same,"Delta, percent change from baseline of calculated LDL-C to week 24",[2]; [4],−23.6%
same,"Delta, percent change from baseline of non-HDL-C to week 24",[2]; [4],−21.6%
same,"Odds Ratio, proportion of patients reaching calculated LDL-C < 70 mg/dL at Week 24",[2]; [4],4.7
same,"Odds Ratio, proportion of very high CV risk patients reaching calculated LDL-C < 70 mg/dL or high CV risk patients reaching calculated LDL-C < 100 mg/dL at Week 24",[2]; [4],3.7
same,"Delta, percent change from baseline of Apo B to week 24",[2]; [5],−38.4%
same,"Delta, percent change from baseline of Apo-B to week 12",[2]; [5],−26.7%
same,"Delta, percent change from baseline of HDL-C to week 24",[2]; [5],2.9%
same,"Delta, percent change from baseline of Lp(a) to week 24",[2]; [5],−21.1%
same,"Delta, percent change from baseline of Non-HDL-C to week 12",[2]; [5],−29.3%
same,"Delta, percent change from baseline of Total-C to week 12",[2]; [5],−19.1%
same,"Delta, percent change from baseline of Total-C to week 24",[2]; [5],−28.9%
same,"Delta, percent change from baseline of calculated LDL-C to week 12",[2]; [5],−36.0%
same,"Delta, percent change from baseline of calculated LDL-C to week 24",[2]; [5],−49.2%
same,"Delta, percent change from baseline of non-HDL-C to week 24",[2]; [5],−41.1%
same,"Odds Ratio, proportion of patients reaching calculated LDL-C < 70 mg/dL at Week 24",[2]; [5],116.8
same,"Odds Ratio, proportion of very high CV risk patients reaching calculated LDL-C < 70 mg/dL or high CV risk patients reaching calculated LDL-C < 100 mg/dL at Week 24",[2]; [5],92.5
same,"Delta, percent change from baseline of Apo B to week 24",[2]; [6],−30.9%
same,"Delta, percent change from baseline of Apo-B to week 12",[2]; [6],−22.2%
same,"Delta, percent change from baseline of HDL-C to week 24",[2]; [6],2.0%
same,"Delta, percent change from baseline of Lp(a) to week 24",[2]; [6],−25.9%
same,"Delta, percent change from baseline of Non-HDL-C to week 12",[2]; [6],−22.5%
same,"Delta, percent change from baseline of Total-C to week 12",[2]; [6],−15.4%
same,"Delta, percent change from baseline of Total-C to week 24",[2]; [6],−21.9%
same,"Delta, percent change from baseline of calculated LDL-C to week 12",[2]; [6],−27.3%
same,"Delta, percent change from baseline of calculated LDL-C to week 24",[2]; [6],−32.6%
